Data set [1] deals with Enterococcus faecalis. Put plainly: Antibacterial activity against Enterococcus faecalis 1085. The class given is functional.
Data set [2] deals with Streptococcus pneumoniae. Kind of data set: Antibacterial activity against Streptococcus pneumoniae 1016. It counts as functional.
For data set [3], the system named is Enterococcus faecium. Kind of data set: Antibacterial activity against Enterococcus faecium 1022. The class given is functional.
Data set [4] deals with Staphylococcus aureus. Put plainly: Antibacterial activity against Staphylococcus aureus 1095. It counts as functional.
Data set [5] can be described thus: Half life in rat. It counts as ADME, organism-based. Conditions: in vivo.
The nature of data set [6]: Volume of distribution at steady state in monkey. The class given is ADME, organism-based, Macaca mulatta. Conditions: rhesus monkey, in vivo; read-out: Vdss.
The test system of data set [7] is Staphylococcus aureus. Put plainly: Antibacterial activity against Staphylococcus aureus infected in sc dosed in vivo acute model administered bid for 1 day. It counts as functional. The conditions noted are these: 24 h, read-out: PD50.
In data set [8] the test system is Enterococcus faecalis. Kind of data set: Antibacterial activity against Enterococcus faecalis infected in sc dosed in vivo acute model administered bid for 1 day. The class given is functional. The conditions noted are these: 24 h, read-out: PD50.
Data set [9] is described as follows: Half life in dog. It counts as ADME, organism-based, Canis lupus familiaris. The conditions noted are these: in vivo.
The subject of data set [10] is Streptococcus pneumoniae. Kind of data set: Antibacterial activity against penicillin-resistant Streptococcus pneumoniae. It counts as functional.
Data set [11] can be described thus: Half life in mouse. It counts as ADME, organism-based. Conditions: in vivo.
Data set [12] in a line: Volume of distribution at steady state in rat. It counts as ADME, organism-based. The conditions noted are these: in vivo, read-out: Vdss.
Data set [13] is described as follows: Oral bioavailability in mouse. The class given is ADME, organism-based. The conditions noted are these: in vivo.
Data set [14] deals with Staphylococcus epidermidis. Kind of data set: Antibacterial activity against methicillin-sensitive Staphylococcus epidermidis. It counts as functional.
The nature of data set [15]: Clearance in dog. It counts as ADME, organism-based, Canis lupus familiaris. Conditions: in vivo.
The test system of data set [16] is Enterococcus faecium. Put plainly: Antibacterial activity against Enterococcus faecium infected in sc dosed in vivo acute model administered bid for 1 day. The class given is functional. The conditions noted are these: 24 h, read-out: PD50.
Data set [17] is described as follows: Volume of distribution at steady state in dog. It counts as ADME, organism-based, Canis lupus familiaris. Conditions: in vivo, read-out: Vdss.
The subject of data set [18] is Streptococcus pyogenes. Kind of data set: Antibacterial activity against Streptococcus pyogenes infected in sc dosed in vivo acute model administered bid for 1 day. The class given is functional. Conditions: 24 h, read-out: PD50.
The nature of data set [19]: Volume of distribution at steady state in mouse. Conditions: in vivo, read-out: Vdss. It counts as ADME, organism-based.
Data set [20] in a line: Half life in monkey. Conditions: rhesus monkey, in vivo. It counts as ADME, organism-based, Macaca mulatta.
A short description of data set [21]: Clearance in rat. The conditions noted are these: in vivo. The class given is ADME, organism-based.
Data set [22] has as its system Enterococcus faecium. Kind of data set: Antibacterial activity against multidrug-resistant Enterococcus faecium. It counts as functional.
Data set [23] in a line: Oral bioavailability in rat at 10 mg/kg, po and 5 mg/kg, iv. It counts as ADME, organism-based. Conditions: in vivo.
The test system of data set [24] is Staphylococcus aureus. Put plainly: Antibacterial activity against methicillin-resistant Staphylococcus aureus. It counts as functional.
Data set [25] deals with Streptococcus pneumoniae. Put plainly: Antibacterial activity against Streptococcus pneumoniae infected in sc dosed in vivo lung model administered bid for 3 day. The class given is functional. The conditions noted are these: 72 h, read-out: PD50.
Data set [26] can be described thus: Clearance in mouse. It counts as ADME, organism-based. Conditions: in vivo.
In data set [27] the test system is Staphylococcus aureus. Put plainly: Antibacterial activity against methicillin-sensitive Staphylococcus aureus. It counts as functional.
A short description of data set [28]: Clearance in monkey. It counts as ADME, organism-based, Macaca mulatta. Conditions: rhesus monkey, in vivo.
Data set [29] relates to Staphylococcus aureus. Kind of data set: Antibacterial activity against glycopeptide-intermediate Staphylococcus aureus. It counts as functional.
Data set [30] relates to Enterococcus faecalis. Put plainly: Antibacterial activity against multidrug-resistant Enterococcus faecalis. It counts as functional.
The test system of data set [31] is Streptococcus pneumoniae. Put plainly: Antibacterial activity against Streptococcus pneumoniae infected in po dosed in vivo lung model administered bid for 3 day. The class given is functional. Conditions: 72 h, read-out: PD50.
For data set [32], the system named is Enterococcus faecium. Put plainly: Antibacterial activity against Enterococcus faecium infected in po dosed in vivo acute model administered bid for 1 day. Conditions: 24 h, read-out: PD50. The class given is functional.
The test system of data set [33] is Enterococcus faecalis. Kind of data set: Antibacterial activity against Enterococcus faecalis infected in po dosed in vivo acute model administered bid for 1 day. The class given is functional. The conditions noted are these: 24 h, read-out: PD50.
Data set [34] deals with Streptococcus pyogenes. Kind of data set: Antibacterial activity against Streptococcus pyogenes infected in po dosed in vivo acute model administered bid for 1 day. The class given is functional. The conditions noted are these: 24 h, read-out: PD50.

Results on twelve compounds are retold here after ChEMBL document CHEMBL1641546, “The discovery and structure-activity relationships leading to CE-156811, a difluorophenyl cyclopropyl fluoroether: a novel potent antibacterial analog derived from hygromycin A” (Bioorg Med Chem Lett, 2011).

Molecules are shown by their SMILES. Converted amounts (≈) assume the structure as drawn. The source made the active and inactive calls. The rule behind the calls is not given here.

As for `C/C(=C\c1cc(F)c(OCC2CCC2)cc1F)C(=O)N[C@@H]1[C@H](O)[C@@H](O)[C@H]2OCO[C@H]2[C@@H]1O`, the MIC in [1] was found to be 12.5 µg/mL (≈ 27.4 µM); in data set [2], 6.2 µg/mL (≈ 13.6 µM); in [3] it was 6.2 µg/mL (≈ 13.6 µM); in [4], 12.5 µg/mL (≈ 27.4 µM).

As for `C/C(=C\c1cc(F)c(OC[C@H](F)C2CC2)cc1F)C(=O)N[C@@H]1[C@H](O)[C@@H](O)[C@H]2OCO[C@H]2[C@@H]1O`, the half-life in data set [5] was 1.3 h; in data set [9] it was 1.9 h; in data set [11], 1.4 h; in data set [20], 1 h. In addition, the Vd in data set [6] stood at 0.59 L/kg; in data set [12] it was 0.5 L/kg; in data set [17], 0.71 L/kg; in data set [19] it was 0.52 L/kg. Further, the ED50 in data set [7] turned out to be 4 mg/kg; in [8], 10 mg/kg; in [16] it was 8 mg/kg; in data set [18], 3 mg/kg; in data set [25], 23 mg/kg. The MIC90 was determined as 0.5 µg/mL (≈ 1.06 µM) in [10]; 0.25 µg/mL (≈ 0.528 µM) in data set [14]; 1 µg/mL (≈ 2.11 µM) in data set [22]; 0.5 µg/mL (≈ 1.06 µM) in data set [24]; 1 µg/mL (≈ 2.11 µM) in data set [27]; 0.125 µg/mL (≈ 0.264 µM) in data set [29]. In addition, the MIC90 in [30] was found to be 0.5 µg/mL (≈ 1.06 µM). Also, the values for the bioavailability in data set [13] and in data set [23] were 55% and 56%, respectively. The clearance was determined as 5.4 mL/min/kg in data set [15], 10.5 mL/min/kg in data set [21], 12.1 mL/min/kg in data set [26] and 8.6 mL/min/kg in data set [28].

For `C/C(=C\c1cc(F)c(OCCC(F)F)cc1F)C(=O)N[C@@H]1[C@H](O)[C@@H](O)[C@H]2OCO[C@H]2[C@@H]1O`, the MIC turned out to be 12.5 µg/mL (≈ 26.9 µM) in data set [1], 1.56 µg/mL (≈ 3.35 µM) in [2], 3.13 µg/mL (≈ 6.73 µM) in [3] and 12.5 µg/mL (≈ 26.9 µM) in data set [4].

As to `C/C(=C\c1cc(F)c(OCC(F)C2CC2)cc1F)C(=O)N[C@@H]1[C@H](O)[C@@H](O)[C@H]2OCO[C@H]2[C@@H]1O` (some centres not stated), the MIC in data set [1] was 1.6 µg/mL (≈ 3.38 µM); in [2] it was 0.4 µg/mL (≈ 0.845 µM); in data set [3] it was 1.6 µg/mL (≈ 3.38 µM); in data set [4], 1.56 µg/mL (≈ 3.3 µM).

In the case of `C/C(=C\c1cc(F)c(OCCF)cc1F)C(=O)N[C@@H]1[C@H](O)[C@@H](O)[C@H]2OCO[C@H]2[C@@H]1O`, the MIC in data set [1] is 25 µg/mL (≈ 57.7 µM); in [2], 6.2 µg/mL (≈ 14.3 µM); in data set [3] it was 25 µg/mL (≈ 57.7 µM); in data set [4] it was 50 µg/mL (≈ 115 µM).

Regarding `CCOc1cc(F)c(/C=C(\C)C(=O)N[C@@H]2[C@H](O)[C@@H](O)[C@H]3OCO[C@H]3[C@@H]2O)cc1F`, the MIC in [1] came out at 25 µg/mL (≈ 60.2 µM); in [3], 12.5 µg/mL (≈ 30.1 µM); in [4] it was 100 µg/mL (≈ 241 µM). Moreover, in [2], the MIC entry is “inactive”.

For the compound `C/C(=C\c1cc(F)c(OCC2(F)CCC2)cc1F)C(=O)N[C@@H]1[C@H](O)[C@@H](O)[C@H]2OCO[C@H]2[C@@H]1O`, the MIC in data set [1] worked out at 6.2 µg/mL (≈ 13.1 µM); in data set [2], 3.1 µg/mL (≈ 6.55 µM); in data set [3], 6.2 µg/mL (≈ 13.1 µM); in [4] it was 6.2 µg/mL (≈ 13.1 µM).

Turning to `C/C(=C\c1cc(F)c(OCCO)cc1F)C(=O)N[C@@H]1[C@H](O)[C@@H](O)[C@H]2OCO[C@H]2[C@@H]1O`, the MIC was over 100 µg/mL in data set [1], over 100 µg/mL in data set [3] and 100 µg/mL (≈ 232 µM) in data set [4]. Moreover, the MIC entry in [2] was “inactive”.

As for `C/C(=C\c1cc(F)c(OCC(C)F)cc1F)C(=O)N[C@@H]1[C@H](O)[C@@H](O)[C@H]2OCO[C@H]2[C@@H]1O` (some centres not stated), the MIC in data set [1] worked out at 60.2 µg/mL (≈ 135 µM); in [2], 60.2 µg/mL (≈ 135 µM); in data set [3] it was 3.13 µg/mL (≈ 7 µM); in [4] it was 6.25 µg/mL (≈ 14 µM).

With `C/C(=C\c1cc(F)c(OCCC(C)(C)F)cc1F)C(=O)N[C@@H]1[C@H](O)[C@@H](O)[C@H]2OCO[C@H]2[C@@H]1O`, the minimum inhibitory concentration (MIC) in data set [1] came to 100 µg/mL (≈ 210 µM); in data set [2], 25 µg/mL (≈ 52.6 µM); in data set [3] it was 50 µg/mL (≈ 105 µM); in data set [4], 100 µg/mL (≈ 210 µM).

Consider `C/C(=C\c1cc(F)c(OCCCF)cc1F)C(=O)N[C@@H]1[C@H](O)[C@@H](O)[C@H]2OCO[C@H]2[C@@H]1O`, for which the MIC in [1] was 1.56 µg/mL (≈ 3.49 µM); in data set [2] it was 2 µg/mL (≈ 4.47 µM); in [3] it was 0.78 µg/mL (≈ 1.74 µM); in [4] it was 1.56 µg/mL (≈ 3.49 µM).

On to `CC(=O)NC[C@H]1CN(c2ccc(N3CCOCC3)c(F)c2)C(=O)O1` [LINEZOLID], for which the MIC90 in data set [10] stood at 1 µg/mL (≈ 2.96 µM); in data set [14], 1 µg/mL (≈ 2.96 µM); in [22] it was 2 µg/mL (≈ 5.93 µM); in data set [24], 1 µg/mL (≈ 2.96 µM); in data set [27], 2 µg/mL (≈ 5.93 µM); in data set [29], 0.5 µg/mL (≈ 1.48 µM). In [30], this compound showed an MIC90 of 1 µg/mL (≈ 2.96 µM). The ED50 was 10 mg/kg in data set [31], 4 mg/kg in data set [32], 3 mg/kg in data set [33] and 3 mg/kg in [34].
